ChEMBL document CHEMBL1201862, “PubChem BioAssay data set” (2004)
Active and inactive are the calls of the source.

Assays:
Large T antigen = Large T antigen (Simian virus 40, UniProt P03070); assay type: functional, Betapolyomavirus macacae;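 also: Confirmatory-stage PubChem screen for compounds that inhibit SV40 T antigen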
[1] = molecular target: T1, Voltage-gated N-type calcium channel alpha-1B subunit/Amyloid beta A4 precursor protein-binding family A member 1 (Homo sapiens, UniProt Q00975+Q02410); assay type: protein assay
[2] = molecular target: Induced myeloid leukemia cell differentiation protein Mcl-1 (Homo sapiens, UniProt Q07820); assay type: functional
[3] = molecular target: T1, Voltage-gated N-type calcium channel alpha-1B subunit/Amyloid beta A4 precursor protein-binding family A member 1; assay type: protein assay; remark: listed apart in the source
Albumin = Albumin (Bos taurus, UniProt P02769); experiment: Counterscreen for inhibitors of T-cell receptor (TCR)-CD3 interaction: Fluorescence-based biochemical high throughput dose response assay to identify inhibitors of T-cell receptor (TCR)-CD3 interaction using a TAMRA-labeled BSA probe.; assay type: functional
Genome polyprotein = Genome polyprotein (Hepatitis C virus, UniProt Q2Q167); experiment: disruption of hepatitis C core self-association – biochemical, TR-FRET, dose response (AID 2159); set-up: species or system Hepacivirus hominis;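 also: blocks dimerization of HCV core protein measured by TR-FRET between tagged core106 pairs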
[4] = molecular target: T1, Voltage-gated N-type calcium channel alpha-1B subunit/Amyloid beta A4 precursor protein-binding family A member 1; experiment: disruptors of Mint-PDZ/N-type channel peptide interaction – biochemical, HTRF, SAR follow-up (AID 2489); assay type: functional
[5] = molecular target: T1, Voltage-gated N-type calcium channel alpha-1B subunit/Amyloid beta A4 precursor protein-binding family A member 1; experiment: disruptors of Mint-PDZ/N-type channel peptide interaction – biochemical, HTRF, set 2, SAR follow-up (AID 434980); assay type: functional
[6] = molecular target: Protein-tyrosine kinase 2-beta (Homo sapiens, UniProt Q14289);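 also: potency of inhibitors of PYK2 kinase phosphorylation of poly-GT substrate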
[7] = molecular target: T2, Heat shock factor protein 1 (Mus musculus, UniProt P38532); experiment: decrease of HSF1-responsive luciferase luminescence – cell-based, NIH3T3, dose retest, confirmation (AID 2382); assay type: functional;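 also: NIH3T3 fibroblasts with HSF1-driven luciferase reporter stressed by proteasome inhibitor MG132; luminescence from HSF1-driven luciferase expression after 8 hours of MG132 stress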
T2 sequence (P38532 whole entry): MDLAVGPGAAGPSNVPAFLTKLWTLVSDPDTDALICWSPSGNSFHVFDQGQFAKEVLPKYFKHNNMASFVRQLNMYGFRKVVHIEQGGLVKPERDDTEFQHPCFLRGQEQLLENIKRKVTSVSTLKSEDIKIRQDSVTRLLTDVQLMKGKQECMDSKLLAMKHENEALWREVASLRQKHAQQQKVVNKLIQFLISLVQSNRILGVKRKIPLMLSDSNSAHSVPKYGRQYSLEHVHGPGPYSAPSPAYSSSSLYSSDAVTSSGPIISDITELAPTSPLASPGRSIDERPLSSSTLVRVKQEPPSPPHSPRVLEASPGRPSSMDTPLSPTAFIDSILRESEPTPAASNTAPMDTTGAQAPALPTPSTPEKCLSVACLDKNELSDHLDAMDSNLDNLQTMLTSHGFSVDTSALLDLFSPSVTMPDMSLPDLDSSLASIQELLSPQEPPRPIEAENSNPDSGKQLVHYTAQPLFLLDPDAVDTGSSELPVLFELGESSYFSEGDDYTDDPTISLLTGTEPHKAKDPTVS

Estrogen receptor beta [8] = molecular target: T3, Estrogen receptor beta (Homo sapiens, UniProt Q92731); experiment: blockers of SRC-3 recruitment to ERβ – biochemical, ELISA, streptavidin-HRP readout, orthogonal assay, confirmation (AID 1060)
[9] = molecular target: T4, Long-chain-fatty-acid--AMP ligase FadD28 (Mycobacterium tuberculosis, UniProt P9WQ59); experiment: Fluorescence polarization aasay to screen for inhibitors that compete for the binding of FadD28 to a bisubstrate Measured in Biochemical System Using Plate Reader - 2147-01_Inhibitor_Dose_CherryPick_Activity.; assay type: functional, Mycobacterium tuberculosis H37Rv
T4 sequence (P9WQ59 whole entry): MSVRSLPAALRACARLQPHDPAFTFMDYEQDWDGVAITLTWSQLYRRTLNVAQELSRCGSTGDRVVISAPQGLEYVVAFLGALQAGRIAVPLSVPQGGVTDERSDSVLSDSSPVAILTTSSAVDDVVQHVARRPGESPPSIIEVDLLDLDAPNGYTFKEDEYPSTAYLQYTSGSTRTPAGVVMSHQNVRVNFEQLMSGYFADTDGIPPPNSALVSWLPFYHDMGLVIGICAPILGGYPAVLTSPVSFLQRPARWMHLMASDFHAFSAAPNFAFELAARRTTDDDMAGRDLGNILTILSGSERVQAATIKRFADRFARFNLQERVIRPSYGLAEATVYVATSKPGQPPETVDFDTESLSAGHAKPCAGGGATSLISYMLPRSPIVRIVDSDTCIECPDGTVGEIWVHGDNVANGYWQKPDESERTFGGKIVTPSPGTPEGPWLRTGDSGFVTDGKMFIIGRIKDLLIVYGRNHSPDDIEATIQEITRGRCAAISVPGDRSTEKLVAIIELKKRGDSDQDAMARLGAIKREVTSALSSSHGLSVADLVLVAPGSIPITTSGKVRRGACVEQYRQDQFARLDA

[10] = molecular target: T5, Histone-lysine N-methyltransferase NSD2 (Homo sapiens, UniProt O96028); assay type: biochemical
T5 sequence (O96028 whole entry): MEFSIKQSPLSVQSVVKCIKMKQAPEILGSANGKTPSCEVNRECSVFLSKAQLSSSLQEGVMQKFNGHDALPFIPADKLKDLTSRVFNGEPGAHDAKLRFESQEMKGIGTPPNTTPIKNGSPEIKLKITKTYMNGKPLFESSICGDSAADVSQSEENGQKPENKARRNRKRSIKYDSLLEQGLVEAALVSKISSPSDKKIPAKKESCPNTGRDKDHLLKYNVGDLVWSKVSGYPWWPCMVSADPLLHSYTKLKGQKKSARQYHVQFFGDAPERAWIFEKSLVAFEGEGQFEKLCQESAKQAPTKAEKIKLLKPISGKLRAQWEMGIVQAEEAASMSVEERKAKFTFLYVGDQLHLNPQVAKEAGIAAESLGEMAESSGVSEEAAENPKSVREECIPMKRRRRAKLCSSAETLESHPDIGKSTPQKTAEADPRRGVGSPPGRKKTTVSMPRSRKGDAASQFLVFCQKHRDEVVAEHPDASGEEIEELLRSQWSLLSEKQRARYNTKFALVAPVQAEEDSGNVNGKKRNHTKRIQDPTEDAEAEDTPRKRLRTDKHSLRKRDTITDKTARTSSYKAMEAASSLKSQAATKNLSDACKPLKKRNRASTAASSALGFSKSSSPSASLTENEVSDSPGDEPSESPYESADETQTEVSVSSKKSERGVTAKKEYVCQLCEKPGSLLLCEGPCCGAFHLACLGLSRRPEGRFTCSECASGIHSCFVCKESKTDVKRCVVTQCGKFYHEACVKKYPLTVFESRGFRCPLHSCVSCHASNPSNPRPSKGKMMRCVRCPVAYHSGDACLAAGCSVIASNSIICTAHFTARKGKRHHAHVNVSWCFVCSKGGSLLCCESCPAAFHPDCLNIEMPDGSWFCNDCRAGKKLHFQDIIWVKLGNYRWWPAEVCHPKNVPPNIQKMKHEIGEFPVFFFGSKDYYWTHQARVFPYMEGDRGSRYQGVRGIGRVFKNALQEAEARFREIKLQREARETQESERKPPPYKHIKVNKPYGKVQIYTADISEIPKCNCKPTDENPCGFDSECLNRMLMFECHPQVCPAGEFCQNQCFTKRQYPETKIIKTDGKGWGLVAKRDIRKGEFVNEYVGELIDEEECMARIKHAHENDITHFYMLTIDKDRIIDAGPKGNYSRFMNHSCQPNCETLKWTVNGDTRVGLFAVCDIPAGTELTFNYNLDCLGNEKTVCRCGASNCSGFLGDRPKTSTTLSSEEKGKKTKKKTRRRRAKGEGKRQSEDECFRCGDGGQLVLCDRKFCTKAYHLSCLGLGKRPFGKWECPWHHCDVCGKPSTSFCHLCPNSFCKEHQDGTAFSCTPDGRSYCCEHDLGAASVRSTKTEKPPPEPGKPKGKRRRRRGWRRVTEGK

[11] = molecular target: Heat shock protein HSP 90-alpha (Homo sapiens, UniProt P07900); experiment: Luminescence-based dose response biochemical high throughput screening assay for inhibitors of the Heat Shock Protein 90 (HSP90). [Related pubchem assays: 1831 (Summary AID.), 1846 (Confirmation screen.), 1789 (Primary screen.)]
[12] = CCR5-tropic HIV-1 fusion blockers – cell-based, CCR5-tropic Env, dose response (AID 2279); assay type: functional
Trypsin = Trypsin (Sus scrofa, UniProt P00761); experiment: trypsin protease activity blockade – biochemical, quenched peptide fluorescence, cherry-pick, selectivity assay for Rce1 protease inhibitor project, dose response (AID 488789)
Estrogen receptor beta [13] = molecular target: T3, Estrogen receptor beta
Estrogen receptor = molecular target: T6, Estrogen receptor (Homo sapiens, UniProt P03372);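 also: potency for inhibiting coactivator peptide recruitment to the receptor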
T6 sequence (P03372 whole entry): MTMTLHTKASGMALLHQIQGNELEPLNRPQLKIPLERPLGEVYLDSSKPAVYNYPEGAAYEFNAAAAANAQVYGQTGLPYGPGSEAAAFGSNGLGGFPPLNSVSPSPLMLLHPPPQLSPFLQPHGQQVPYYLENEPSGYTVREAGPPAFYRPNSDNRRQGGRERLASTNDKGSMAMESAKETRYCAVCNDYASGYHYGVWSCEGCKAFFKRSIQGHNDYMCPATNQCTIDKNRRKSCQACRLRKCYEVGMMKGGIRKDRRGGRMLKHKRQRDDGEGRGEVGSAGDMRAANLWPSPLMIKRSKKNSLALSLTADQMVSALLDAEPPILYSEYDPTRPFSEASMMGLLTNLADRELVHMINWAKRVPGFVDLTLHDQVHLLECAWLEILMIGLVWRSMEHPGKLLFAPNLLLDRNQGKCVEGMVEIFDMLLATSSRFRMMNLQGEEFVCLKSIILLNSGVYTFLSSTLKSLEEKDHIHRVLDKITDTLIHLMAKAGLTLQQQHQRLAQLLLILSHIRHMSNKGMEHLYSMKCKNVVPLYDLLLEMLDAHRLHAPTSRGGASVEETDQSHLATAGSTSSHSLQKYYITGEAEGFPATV

CAAX prenyl protease 2 = molecular target: T7, CAAX prenyl protease 2 (Homo sapiens, UniProt Q9Y256); experiment: inhibition of Ras-converting CAAX protease Rce1 – biochemical, yeast membranes, quenched-peptide fluorescence, cherry-pick, dose response (AID 588849)
T7 sequence (Q9Y256 whole entry): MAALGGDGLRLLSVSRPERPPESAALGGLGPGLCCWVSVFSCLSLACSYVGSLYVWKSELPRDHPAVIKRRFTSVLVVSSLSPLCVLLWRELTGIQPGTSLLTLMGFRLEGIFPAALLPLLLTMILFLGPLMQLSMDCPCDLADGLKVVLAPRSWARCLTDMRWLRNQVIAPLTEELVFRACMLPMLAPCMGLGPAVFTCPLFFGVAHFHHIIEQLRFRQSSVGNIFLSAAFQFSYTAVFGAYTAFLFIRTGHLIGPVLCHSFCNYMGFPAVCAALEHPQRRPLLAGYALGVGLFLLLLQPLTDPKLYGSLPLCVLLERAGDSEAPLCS

Heat shock protein HSP90 = Heat shock protein HSP90 (Homo sapiens, UniProt P07900+P08238); experiment: Hsp90 blockade concentration-response – dose response (AID 712); assay type: functional

T1 sequence (Q00975 whole entry): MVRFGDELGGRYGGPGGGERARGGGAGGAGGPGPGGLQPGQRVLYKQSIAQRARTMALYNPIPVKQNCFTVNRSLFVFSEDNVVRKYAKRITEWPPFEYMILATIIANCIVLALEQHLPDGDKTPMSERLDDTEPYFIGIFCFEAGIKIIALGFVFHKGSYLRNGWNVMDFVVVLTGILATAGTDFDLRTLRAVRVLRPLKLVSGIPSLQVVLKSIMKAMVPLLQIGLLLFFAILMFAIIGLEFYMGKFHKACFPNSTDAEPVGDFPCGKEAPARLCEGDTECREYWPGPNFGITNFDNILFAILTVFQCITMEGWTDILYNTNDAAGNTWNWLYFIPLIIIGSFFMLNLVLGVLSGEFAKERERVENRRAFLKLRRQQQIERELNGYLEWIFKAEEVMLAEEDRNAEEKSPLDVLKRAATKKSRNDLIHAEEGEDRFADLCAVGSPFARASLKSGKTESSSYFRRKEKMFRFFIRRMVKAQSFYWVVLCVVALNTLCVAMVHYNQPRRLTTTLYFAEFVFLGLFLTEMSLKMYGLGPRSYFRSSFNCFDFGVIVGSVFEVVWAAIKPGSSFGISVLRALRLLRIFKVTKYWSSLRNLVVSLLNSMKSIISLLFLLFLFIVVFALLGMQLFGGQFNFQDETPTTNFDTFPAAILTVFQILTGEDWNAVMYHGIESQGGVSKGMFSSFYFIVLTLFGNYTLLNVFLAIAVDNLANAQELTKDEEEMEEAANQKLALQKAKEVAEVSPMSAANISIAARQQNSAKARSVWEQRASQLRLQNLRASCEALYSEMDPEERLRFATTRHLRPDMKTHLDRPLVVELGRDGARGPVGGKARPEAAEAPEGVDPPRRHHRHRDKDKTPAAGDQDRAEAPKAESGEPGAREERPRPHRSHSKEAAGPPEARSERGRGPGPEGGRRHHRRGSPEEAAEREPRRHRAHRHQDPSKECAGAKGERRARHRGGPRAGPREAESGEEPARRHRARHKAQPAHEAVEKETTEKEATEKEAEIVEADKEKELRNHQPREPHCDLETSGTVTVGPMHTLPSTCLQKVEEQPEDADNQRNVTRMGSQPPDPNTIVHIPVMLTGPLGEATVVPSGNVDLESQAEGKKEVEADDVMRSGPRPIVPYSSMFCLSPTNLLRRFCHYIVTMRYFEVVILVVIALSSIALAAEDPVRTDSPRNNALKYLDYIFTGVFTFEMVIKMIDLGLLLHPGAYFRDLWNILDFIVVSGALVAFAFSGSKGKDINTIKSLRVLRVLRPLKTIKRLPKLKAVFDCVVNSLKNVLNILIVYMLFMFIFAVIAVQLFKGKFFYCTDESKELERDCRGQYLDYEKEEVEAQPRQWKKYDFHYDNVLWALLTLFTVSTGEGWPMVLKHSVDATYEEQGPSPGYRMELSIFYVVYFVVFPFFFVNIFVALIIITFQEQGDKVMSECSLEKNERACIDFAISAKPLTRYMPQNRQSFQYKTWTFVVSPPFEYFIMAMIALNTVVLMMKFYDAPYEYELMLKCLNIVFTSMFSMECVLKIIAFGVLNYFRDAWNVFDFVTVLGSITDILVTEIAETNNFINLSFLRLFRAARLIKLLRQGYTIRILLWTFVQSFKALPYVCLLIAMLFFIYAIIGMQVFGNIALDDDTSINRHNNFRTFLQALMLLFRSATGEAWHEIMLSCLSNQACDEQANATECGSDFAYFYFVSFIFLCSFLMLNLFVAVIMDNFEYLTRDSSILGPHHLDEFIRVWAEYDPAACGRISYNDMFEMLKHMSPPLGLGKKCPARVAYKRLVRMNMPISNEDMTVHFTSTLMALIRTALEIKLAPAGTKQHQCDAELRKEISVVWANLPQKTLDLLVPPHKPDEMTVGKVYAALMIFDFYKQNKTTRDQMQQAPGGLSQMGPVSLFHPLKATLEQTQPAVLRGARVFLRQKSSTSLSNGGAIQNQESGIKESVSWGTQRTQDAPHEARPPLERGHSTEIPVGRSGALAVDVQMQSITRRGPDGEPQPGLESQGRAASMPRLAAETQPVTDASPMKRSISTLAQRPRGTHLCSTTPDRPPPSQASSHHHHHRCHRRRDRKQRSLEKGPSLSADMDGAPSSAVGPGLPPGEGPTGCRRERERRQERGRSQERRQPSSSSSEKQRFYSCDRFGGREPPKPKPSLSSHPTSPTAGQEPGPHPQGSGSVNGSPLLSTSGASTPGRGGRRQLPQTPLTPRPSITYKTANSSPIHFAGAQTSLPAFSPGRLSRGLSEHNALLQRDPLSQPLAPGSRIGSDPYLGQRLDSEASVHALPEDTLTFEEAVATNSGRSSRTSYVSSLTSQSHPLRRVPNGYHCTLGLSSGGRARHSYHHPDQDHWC
T1 sequence (Q02410 whole entry): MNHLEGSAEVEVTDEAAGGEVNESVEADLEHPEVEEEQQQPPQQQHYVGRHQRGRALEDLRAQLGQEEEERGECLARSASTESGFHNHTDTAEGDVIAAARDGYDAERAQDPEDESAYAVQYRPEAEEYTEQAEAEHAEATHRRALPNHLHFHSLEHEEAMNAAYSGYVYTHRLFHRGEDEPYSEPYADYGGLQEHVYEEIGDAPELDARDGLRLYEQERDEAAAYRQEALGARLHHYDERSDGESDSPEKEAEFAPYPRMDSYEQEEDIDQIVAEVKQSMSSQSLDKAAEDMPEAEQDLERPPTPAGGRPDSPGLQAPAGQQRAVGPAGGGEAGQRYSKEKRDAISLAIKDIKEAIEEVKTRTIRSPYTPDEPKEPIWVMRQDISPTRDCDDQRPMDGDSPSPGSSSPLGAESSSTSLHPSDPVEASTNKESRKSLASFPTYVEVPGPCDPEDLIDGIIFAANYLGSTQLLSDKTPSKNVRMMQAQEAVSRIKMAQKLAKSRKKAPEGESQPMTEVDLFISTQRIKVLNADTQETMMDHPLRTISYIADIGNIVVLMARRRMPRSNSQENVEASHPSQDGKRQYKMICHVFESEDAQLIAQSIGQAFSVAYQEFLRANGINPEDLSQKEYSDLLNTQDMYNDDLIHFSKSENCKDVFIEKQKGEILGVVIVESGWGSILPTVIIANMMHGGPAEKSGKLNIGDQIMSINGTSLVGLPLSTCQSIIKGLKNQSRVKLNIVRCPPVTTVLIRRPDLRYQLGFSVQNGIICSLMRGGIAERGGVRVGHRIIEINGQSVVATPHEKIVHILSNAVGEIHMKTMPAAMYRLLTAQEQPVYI
T3 sequence (Q92731 whole entry): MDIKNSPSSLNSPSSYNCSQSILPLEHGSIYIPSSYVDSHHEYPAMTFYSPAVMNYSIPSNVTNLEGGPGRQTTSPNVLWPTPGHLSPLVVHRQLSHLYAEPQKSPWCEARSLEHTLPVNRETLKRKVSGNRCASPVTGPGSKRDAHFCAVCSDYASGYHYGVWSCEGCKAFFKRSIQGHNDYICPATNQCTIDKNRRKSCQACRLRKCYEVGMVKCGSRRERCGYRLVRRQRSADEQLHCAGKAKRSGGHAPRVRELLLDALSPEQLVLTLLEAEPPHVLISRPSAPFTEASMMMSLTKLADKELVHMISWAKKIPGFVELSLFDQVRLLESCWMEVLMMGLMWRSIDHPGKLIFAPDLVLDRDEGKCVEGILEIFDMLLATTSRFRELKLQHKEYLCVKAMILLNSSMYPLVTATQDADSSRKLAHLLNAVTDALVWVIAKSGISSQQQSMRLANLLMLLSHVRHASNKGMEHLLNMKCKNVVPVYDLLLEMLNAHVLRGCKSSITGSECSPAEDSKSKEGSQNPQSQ
Sequence of Induced myeloid leukemia cell differentiation protein Mcl-1 (Q07820 whole entry): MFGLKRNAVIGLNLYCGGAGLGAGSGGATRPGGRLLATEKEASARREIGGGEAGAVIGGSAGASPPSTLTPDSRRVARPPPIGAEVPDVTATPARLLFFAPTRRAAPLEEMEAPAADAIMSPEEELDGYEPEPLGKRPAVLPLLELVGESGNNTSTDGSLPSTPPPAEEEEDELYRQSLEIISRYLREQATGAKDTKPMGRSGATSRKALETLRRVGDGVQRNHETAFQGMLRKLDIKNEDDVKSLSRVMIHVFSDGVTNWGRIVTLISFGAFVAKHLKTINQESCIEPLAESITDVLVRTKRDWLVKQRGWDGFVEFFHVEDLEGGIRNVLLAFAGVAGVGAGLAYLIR
Sequence of Albumin (P02769 whole entry): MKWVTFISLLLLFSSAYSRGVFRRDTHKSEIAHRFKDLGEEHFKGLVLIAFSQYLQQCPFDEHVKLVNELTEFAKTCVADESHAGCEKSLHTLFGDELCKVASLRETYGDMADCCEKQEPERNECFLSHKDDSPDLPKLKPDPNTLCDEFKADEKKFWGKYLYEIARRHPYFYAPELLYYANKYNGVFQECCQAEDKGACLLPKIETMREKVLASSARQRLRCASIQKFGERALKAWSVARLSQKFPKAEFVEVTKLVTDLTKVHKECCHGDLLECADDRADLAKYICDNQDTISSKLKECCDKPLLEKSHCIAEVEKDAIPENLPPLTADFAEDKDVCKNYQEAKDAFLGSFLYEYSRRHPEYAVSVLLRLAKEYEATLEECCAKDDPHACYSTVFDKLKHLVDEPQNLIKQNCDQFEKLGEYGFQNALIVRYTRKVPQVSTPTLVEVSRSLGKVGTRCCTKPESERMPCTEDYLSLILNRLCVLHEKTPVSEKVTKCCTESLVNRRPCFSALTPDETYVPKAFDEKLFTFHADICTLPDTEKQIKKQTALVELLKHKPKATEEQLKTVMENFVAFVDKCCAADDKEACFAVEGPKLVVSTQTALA
Sequence of Trypsin (P00761 whole entry): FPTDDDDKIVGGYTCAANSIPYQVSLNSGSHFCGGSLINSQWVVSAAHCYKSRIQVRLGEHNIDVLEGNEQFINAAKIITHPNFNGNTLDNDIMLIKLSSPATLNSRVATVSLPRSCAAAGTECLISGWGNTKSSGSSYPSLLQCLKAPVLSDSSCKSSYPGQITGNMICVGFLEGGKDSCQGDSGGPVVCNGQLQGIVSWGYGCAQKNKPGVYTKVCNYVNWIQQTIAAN
Sequence of Genome polyprotein (Q2Q167 whole entry): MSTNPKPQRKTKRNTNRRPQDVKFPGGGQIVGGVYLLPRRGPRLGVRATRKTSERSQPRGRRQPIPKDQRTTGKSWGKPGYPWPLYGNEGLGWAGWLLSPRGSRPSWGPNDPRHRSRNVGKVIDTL

**Q.** With `Nc1ncnc2oc(-c3ccco3)c(-c3ccco3)c12` as the molecule, how does the IC50 (Large T antigen) read?
**A.** Its IC50 is 49.5 µM (active).

**Q.** And the IC50 [1]?
**A.** The IC50 was 3.82 µM (active).

**Q.** And the IC50 [2]?
**A.** The IC50 was 4.12 µM (active).

**Q.** And the IC50 [3]?
**A.** Its IC50 is 2.6 µM (active).

**Q.** And the IC50 (Albumin)?
**A.** Its IC50 is > 94.1 µM (inactive).

**Q.** And the IC50 (Genome polyprotein)?
**A.** Its IC50 is > 49.8 µM (not active).

**Q.** What about the IC50 [4] of the same molecule?
**A.** The IC50 was 21.7 µM (active).

**Q.** What about the IC50 [5] of the same molecule?
**A.** The IC50 was 2.42 µM (active).

**Q.** And the IC50 [6]?
**A.** Its IC50 is 2.92 µM (active).

**Q.** And the EC50 [7]?
**A.** The EC50 was 56.7 µM (active).

**Q.** What about the IC50 (Estrogen receptor beta [8]) of the same molecule?
**A.** The IC50 was 3.4 µM (not active).

**Q.** Which AC50 [9] does the source give for `COc1ccc(C(=O)Oc2ccc(/C=N/Nc3ccc(Cl)c(C(=O)O)c3)cc2OC)cc1` here?
**A.** Its AC50 is 99.3 µM (active).

**Q.** What about the AC50 [10] of the same molecule?
**A.** The AC50 was > 20 µM (inactive).

**Q.** What about the IC50 [11] of the same molecule?
**A.** The IC50 was 1.5 µM (active).

**Q.** And the IC50 [12]?
**A.** Its IC50 is 7.02 µM (active).

**Q.** With `COc1ccc(OC)c(/C=N/c2oc(-c3ccco3)c(-c3ccco3)c2C#N)c1` as the molecule, how does the AC50 (Trypsin) read?
**A.** The AC50 was 7.23 µM (active).

**Q.** What about the IC50 (Estrogen receptor beta [13]) of the same molecule?
**A.** Its IC50 is 6.47 µM (active).

**Q.** And the IC50 (Estrogen receptor)?
**A.** Its IC50 is 16.3 µM (active).

**Q.** What about the IC50 [2] of the same molecule?
**A.** Its IC50 is 6.88 µM (active).

**Q.** And the AC50 (CAAX prenyl protease 2)?
**A.** Its AC50 is 4.46 µM (active).

**Q.** And the IC50 (Heat shock protein HSP90)?
**A.** The IC50 was 21.1062 µM.

**Q.** What about the IC50 (Estrogen receptor beta [8]) of the same molecule?
**A.** Its IC50 is 9.23 µM (not active).
